One assay has as its system RS4;11-BCL-2 G101V cells. Description: Cell proliferation assay (MTS), RS4;11-BCL-2 G101V engineered cells. The note with it: Homo sapiens, 120 h, read-out: RS4, 11 BCL2-G101V IC50. It counts as cell-based. The essentials: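 Inhibition of mutant BCL-2 is inferred from reduced proliferation of RS4;11 cells stably overexpressing the mutant. Compounds are tested at 1.5–10000 nM for 120 h (G101V, F104L) or 72 h (D103E, D103Y), with MTS absorbance at 490 nm used to derive IC50.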

Another assay relates to RS4;11-BCL-2 D103E cells. Description: Cell proliferation assay (MTS), RS4;11-BCL-2 D103E engineered cells. The note with it: Homo sapiens, 72 h, read-out: RS4, 11 BCL2-D103E IC50. It counts as cell-based. An excerpt: MTS testing kit was purchased from Promega (Madison, WI, USA). The RPMI-1640, Fetal bovine serum and Penicillin-Streptomycin were purchased from BI (Biological Industries, Beit Haemek, Israel). Puromycin was purchased from Beyotime (shanghai, China). Dimethyl sulfoxide (DMSO) was purchased from Sigma (St. Louis., MO, USA). RS4;11-BCL-2 G101V (Cobioer Lot. #: CBD2021063013P4), RS4;11-BCL-2 D103E (Cobioer Lot. #: CBD2021063013P4), RS4;11-BCL-2 D103Y (Cobioer Lot. #: CBD2022012101P4) and RS4;11-BCL-2 F104L (Cobioer Lot. #: CBD2021063014P4) cells were cultured in RPMI1640 supplemented with 1 ug/mL puromycin, 100 U/mL Penicillin-Streptomycin and 10% FBS.
To investigate whether a compound is able to inhibit the activity of BCL-2 mutation in cells, a mechanism-based assay using engineered cell lines stably overexpressing BCL-2 mutation (RS4;11-BCL-2 G101V, RS4;11-BCL-2 D103E, RS4;11-BCL-2 D103Y, and RS4;11-BCL-2 F104L) was developed. In this assay, the inhibition of BCL-2 mutation was reflected by the inhibition of cell proliferation of engineered RS4;11 cells. Cells were plated into 96-well plates at optimized cell density (RS4;11-BCL-2 G101V: 5000 cells/well; RS4;11-BCL-2 D103E: 7500 cells/well; RS4;11-BCL-2 D103Y: 7500 cells/well; RS4;11-BCL-2 F104L: 5000 cells/well). Plates were incubated at 37° C., with 5% CO2 for 4 h (RS4;11-BCL-2 G101V, RS4;11-BCL-2 F104L) and 24 h (RS4;11-BCL-2 D103E, RS4;11-BCL-2 D103Y), respectively. Compounds were serially diluted and added to the plates with the final concentrations of 10000, 3333.3, 1111.1, 370.4, 123.5, 41.2, 13.7, 4.6 and 1.5 nM. Plates were incubated at 37° C., with 5% CO2 for 120 h (RS4; 11-BCL-2 G101V, RS4; 11-BCL-2 F104L) and 72 h (RS4;11-BCL-2 D103E, RS4;11-BCL-2 D103Y), respectively. 20 μl MTS was added into each well and the plates were incubated at 37° C., with 5% CO2 exactly for 2 h. The absorbance was measured by a microplate reader at 490 nm. IC50 values were calculated using GraphPad Prism 8.0 software.

The IC50 is the point on the concentration scale where inhibition reaches its midpoint.

Each structure is given as a SMILES string.

Consider `COc1cc(CN2CCN(C3CC4(CCN(c5ccc(C(=O)NS(=O)(=O)c6cnc(NC[C@H]7CC[C@](C)(O)CC7)c([N+](=O)[O-])c6)c(Oc6cc7c(F)c[nH]c7nc6OC)c5)CC4)C3)[C@H](c3ccccc3C(C)C)C2)cnc1OC` [Example 123, 4-(2-((R)-4-((5,6-dimethoxypyridin-3-yl)methyl)-2-(2-isopropylphenyl)piperazin-1-yl)-7-azaspiro[3.5]nonan-7-yl)-2-((3-fluoro-6-methoxy-1H-pyrrolo[2,3-b]pyridin-5-yl)oxy)-N-((6-((((1r,4r)-4-hydroxy-4-methylcyclohexyl)methyl)amino)-5-nitropyridin-3-yl)sulfonyl)benzamide], for which the IC50 in the assay on RS4;11-BCL-2 G101V cells and in the assay on RS4;11-BCL-2 D103E cells was 1 nM throughout. Consider `CC(C)c1ccccc1[C@@H]1CN(C(C)C)CCN1C1CC2(CCN(c3ccc(C(=O)NS(=O)(=O)c4cnc(NC[C@H]5CC[C@](C)(O)CC5)c([N+](=O)[O-])c4)c(Oc4cnc5[nH]cc(F)c5c4)c3)CC2)C1` [Example 185, 2-((3-fluoro-1H-pyrrolo[2,3-b]pyridin-5-yl)oxy)-N-((6-((((1r,4r)-4-hydroxy-4-methylcyclohexyl)methyl)amino)-5-nitropyridin-3-yl)sulfonyl)-4-(2-((R)-4-isopropyl-2-(2-isopropylphenyl)piperazin-1-yl)-7-azaspiro[3.5]nonan-7-yl)benzamide], for which the IC50 in the assay with RS4;11-BCL-2 G101V cells and with RS4;11-BCL-2 D103E cells was 1 nM each time. Consider `COc1nc2[nH]cc(F)c2cc1Oc1cc(N2CCC3(CC2)CC(N2CCN(Cc4ccnc5c4OC(C)CN5)C[C@H]2c2ccccc2C(C)C)C3)ccc1C(=O)NS(=O)(=O)c1cnc(NC[C@H]2CC[C@](C)(O)CC2)c([N+](=O)[O-])c1` (stereo partly drawn) [Example 196, 2-((3-fluoro-6-methoxy-1H-pyrrolo[2,3-b]pyridin-5-yl)oxy)-N-((6-((((1r,4r)-4-hydroxy-4-methylcyclohexyl)methyl)amino)-5-nitropyridin-3-yl)sulfonyl)-4-(2-((2R)-2-(2-isopropylphenyl)-4-((2-methyl-3,4-dihydro-2H-pyrido[3,2-b][1,4]oxazin-8-yl)methyl)piperazin-1-yl)-7-azaspiro[3.5]nonan-7-yl)benzamide], for which the IC50 with RS4;11-BCL-2 D103E cells amounted to 1 nM. In the case of `COc1nc2[nH]cc(F)c2cc1Oc1cc(N2CCC3(CC2)CC(N2CCN(Cc4ccnc(O)c4)C[C@H]2c2ccccc2C(C)C)C3)ccc1C(=O)NS(=O)(=O)c1cnc(NC[C@H]2CC[C@](C)(O)CC2)c([N+](=O)[O-])c1` [Example 199, 2-((3-fluoro-6-methoxy-1H-pyrrolo[2,3-b]pyridin-5-yl)oxy)-N-((6-((((1r,4r)-4-hydroxy-4-methylcyclohexyl)methyl)amino)-5-nitropyridin-3-yl)sulfonyl)-4-(2-((R)-4-((2-hydroxypyridin-4-yl)methyl)-2-(2-isopropylphenyl)piperazin-1-yl)-7-azaspiro[3.5]nonan-7-yl)benzamide], the IC50 in the assay with RS4;11-BCL-2 D103E cells came out at 1 nM.

Turning to `CCOc1nc2[nH]cc(F)c2cc1Oc1cc(N2CCC3(CC2)CC(N2CCN(Cc4cnc(C5CC5)c(OC)c4)C[C@H]2c2ccccc2C(C)C)C3)ccc1C(=O)NS(=O)(=O)c1cnc(NC[C@H]2CC[C@](C)(O)CC2)c([N+](=O)[O-])c1` [Example 253, 4-(2-((R)-4-((6-cyclopropyl-5-methoxypyridin-3-yl)methyl)-2-(2-isopropylphenyl)piperazin-1-yl)-7-azaspiro[3.5]nonan-7-yl)-2-((6-ethoxy-3-fluoro-1H-pyrrolo[2,3-b]pyridin-5-yl)oxy)-N-((6-((((1r,4r)-4-hydroxy-4-methylcyclohexyl)methyl)amino)-5-nitropyridin-3-yl)sulfonyl)benzamide], the IC50 with RS4;11-BCL-2 G101V cells worked out at 1 nM; in the assay on RS4;11-BCL-2 D103E cells, 3 nM. The like results for `COc1cc(CN2CCN(C3CC4(CCN(c5ccc(C(=O)NS(=O)(=O)c6cnc(NC[C@H]7CC[C@](C)(O)CC7)c([N+](=O)[O-])c6)c(Oc6cnc7[nH]cc(F)c7c6)c5)CC4)C3)[C@H](c3ccccc3C(C)C)C2)cnc1OC` [Example 259, 4-(2-((R)-4-((5,6-dimethoxypyridin-3-yl)methyl)-2-(2-isopropylphenyl)piperazin-1-yl)-7-azaspiro[3.5]nonan-7-yl)-2-((3-fluoro-1H-pyrrolo[2,3-b]pyridin-5-yl)oxy)-N-((6-((((1r,4r)-4-hydroxy-4-methylcyclohexyl)methyl)amino)-5-nitropyridin-3-yl)sulfonyl)benzamide] were, in that order, 1 nM and 1 nM. For the molecule `COc1cc(CN2CCN(C3CC4(CCN(c5ccc(C(=O)NS(=O)(=O)c6cnc(OC[C@H]7CC[C@](C)(O)CC7)c([N+](=O)[O-])c6)c(Oc6cc7c(F)c[nH]c7nc6OC)c5)CC4)C3)[C@H](c3ccccc3C(C)C)C2)ccn1` [Example 261, 2-((3-fluoro-6-methoxy-1H-pyrrolo[2,3-b]pyridin-5-yl)oxy)-N-((6-(((1r,4r)-4-hydroxy-4-methylcyclohexyl)methoxy)-5-nitropyridin-3-yl)sulfonyl)-4-(2-((R)-2-(2-isopropylphenyl)-4-((2-methoxypyridin-4-yl)methyl)piperazin-1-yl)-7-azaspiro [3.5]nonan-7-yl)benzamide], the IC50 in the assay on RS4;11-BCL-2 D103E cells was found to be 2 nM.

Turning to `CC(C)c1ccccc1[C@@H]1CN(CC2CCOCC2)CCN1C1CC2(CCN(c3ccc(C(=O)NS(=O)(=O)c4cnc(NC[C@H]5CC[C@](C)(O)CC5)c([N+](=O)[O-])c4)c(Oc4cnc5[nH]cc(F)c5c4)c3)CC2)C1` [Example 318, 2-((3-fluoro-1H-pyrrolo[2,3-b]pyridin-5-yl)oxy)-N-((6-((((1r,4r)-4-hydroxy-4-methylcyclohexyl)methyl)amino)-5-nitropyridin-3-yl)sulfonyl)-4-(2-((R)-2-(2-isopropylphenyl)-4-((tetrahydro-2H-pyran-4-yl)methyl)piperazin-1-yl)-7-azaspiro[3.5]nonan-7-yl)benzamide], the IC50 in the assay with RS4;11-BCL-2 G101V cells and in the assay on RS4;11-BCL-2 D103E cells was 1 nM throughout.

Turning to `CC(C)c1ccccc1[C@@H]1CN(C2CCOCC2)CCN1C1CC2(CCN(c3ccc(C(=O)NS(=O)(=O)c4cnc(NC[C@H]5CC[C@](C)(O)CC5)c([N+](=O)[O-])c4)c(Oc4cnc5[nH]cc(F)c5c4)c3)CC2)C1` [Example 320, 2-((3-fluoro-1H-pyrrolo[2,3-b]pyridin-5-yl)oxy)-N-((6-((((1r,4r)-4-hydroxy-4-methylcyclohexyl)methyl)amino)-5-nitropyridin-3-yl)sulfonyl)-4-(2-((R)-2-(2-isopropylphenyl)-4-(tetrahydro-2H-pyran-4-yl)piperazin-1-yl)-7-azaspiro[3.5]nonan-7-yl)benzamide], the IC50 with RS4;11-BCL-2 G101V cells and in the assay on RS4;11-BCL-2 D103E cells was 1 nM throughout.

Take `COc1nc2[nH]cc(F)c2cc1Oc1cc(N2CCC3(CC2)CC(N2CCN(C4CCC(OC)CC4)C[C@H]2c2ccccc2C(C)C)C3)ccc1C(=O)NS(=O)(=O)c1cnc(NC[C@H]2CC[C@](C)(O)CC2)c([N+](=O)[O-])c1` (stereo partly drawn) [Example 325, 2-((3-fluoro-6-methoxy-1H-pyrrolo[2,3-b]pyridin-5-yl)oxy)-N-((6-((((1r,4r)-4-hydroxy-4-methylcyclohexyl)methyl)amino)-5-nitropyridin-3-yl)sulfonyl)-4-(2-((R)-2-(2-isopropylphenyl)-4-(4-methoxycyclohexyl)piperazin-1-yl)-7-azaspiro[3.5]nonan-7-yl)benzamide]: the concentration for half-maximal inhibition (IC50) in the assay on RS4;11-BCL-2 G101V cells and in the assay with RS4;11-BCL-2 D103E cells was 1 nM each time.

Take `COC1CCC(N2CCN(C3CC4(CCN(c5ccc(C(=O)NS(=O)(=O)c6cnc(NC[C@H]7CC[C@](C)(O)CC7)c([N+](=O)[O-])c6)c(Oc6cnc7[nH]cc(F)c7c6)c5)CC4)C3)[C@H](c3ccccc3C(C)C)C2)CC1` (stereo partly drawn) [Example 326, 2-((3-fluoro-1H-pyrrolo[2,3-b]pyridin-5-yl)oxy)-N-((6-((((1r,4r)-4-hydroxy-4-methylcyclohexyl)methyl)amino)-5-nitropyridin-3-yl)sulfonyl)-4-(2-((R)-2-(2-isopropylphenyl)-4-(4-methoxycyclohexyl)piperazin-1-yl)-7-azaspiro[3.5]nonan-7-yl)benzamide]: the IC50 in the assay with RS4;11-BCL-2 D103E cells was 1 nM.

The values are drawn from patent US20250122191A1, “COMPOUNDS AS BCL-2 INHIBITORS” (Fochon Biosciences, Ltd, priority 2021, published 2025).
